From US7425557B2, “Inhibitors of glycogen synthase kinase 3” (Novartis Vaccines and Diagnostics, Inc., priority 1998, dated 2008)

Molecular target: human GSK3β (Homo sapiens, UniProt P49841)
Experiment: Screening for GSK3 inhibitory activity using a cell-free assay
Assay type: biochemical
Conditions: read-out: IC50 with respect to GSK3
Outline: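 Radiometric cell-free assay with recombinant human GSK3β phosphorylating a biotinylated peptide substrate for 3 h. Reactions were stopped with 50 μM ATP/20 mM EDTA and captured on streptavidin plates. Incorporated radiolabel was counted by scintillation and plotted against compound concentration.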

Sequence of human GSK3β (P49841 whole entry): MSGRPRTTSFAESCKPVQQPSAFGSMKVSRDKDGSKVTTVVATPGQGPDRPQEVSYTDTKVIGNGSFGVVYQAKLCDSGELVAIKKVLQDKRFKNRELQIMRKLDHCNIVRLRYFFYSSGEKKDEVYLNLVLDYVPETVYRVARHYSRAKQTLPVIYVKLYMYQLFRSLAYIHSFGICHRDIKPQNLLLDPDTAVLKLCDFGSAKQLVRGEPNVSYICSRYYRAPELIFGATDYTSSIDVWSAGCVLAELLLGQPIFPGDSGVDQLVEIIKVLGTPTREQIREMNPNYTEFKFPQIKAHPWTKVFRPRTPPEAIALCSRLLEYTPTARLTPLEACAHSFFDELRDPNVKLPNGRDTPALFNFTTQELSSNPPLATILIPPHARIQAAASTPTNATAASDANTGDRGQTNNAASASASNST

Row | Compound | IC50
1 | CCOC(=O)c1cnc(NCCNc2ncc(C#N)c(N)n2)nc1-c1ccc(C#N)cc1 [ethyl 2-({2-[(4-amino-5-cyanopyrimidin-2-yl)amino]ethyl}amino)-4-(4-cyanophenyl)pyrimidine-5-carboxylate] | ≤ 1 µM
2 | O=[N+]([O-])c1ccc(NCCNc2nccc(NCc3ccc(Cl)cc3Cl)n2)nc1 | ≤ 10 µM
3 | CCOC(=O)c1cnc(NCCNc2ccc([N+](=O)[O-])cn2)nc1-c1cncc(Br)c1 [ethyl 4-(5-bromo(3-pyridyl))-2-({2-[(5-nitro(2-pyridyl))amino]ethyl}amino)pyrimidine-5-carboxylate] | ≤ 10 µM
4 | O=C(NCc1ccc(Br)cc1)c1ccc(-c2ccnc(NCCNc3ccc([N+](=O)[O-])cn3)n2)cc1 [N-[(4-bromophenyl)methyl]{4-[2-({2-[(5-nitro(2-pyridyl))-amino]ethyl}amino)pyrimidin-4-yl]phenyl}carboxamide] | ≤ 10 µM
5 | COc1ccc(OC)c(CCNc2nccc(-c3cccnc3)n2)c1 [[2-(2,5-dimethoxyphenyl)ethyl](4-(3-pyridyl)pyrimidin-2-yl)amine] | ≤ 10 µM
6 | O=[N+]([O-])c1ccc(NCCNc2nccc(NCc3cccc(Br)c3)n2)nc1 [(4-{[(3-bromophenyl)methyl]amino}pyrimidin-2-yl){2-[(5-nitro(2-pyridyl))amino]ethyl}-amine] | ≤ 10 µM
7 | NC(=O)c1ccc(-c2ccnc(NCCc3ccccn3)n2)cc1 [4-{2-[(2-(2-pyridyl)ethyl)amino]pyrimidin-4-yl}benzamide] | ≤ 1 µM
8 | COc1ccc(OC)c(CCNc2nccc(-c3ccc(C(=O)NCc4cccc(Br)c4)cc3)n2)c1 [[4-(2-{[2-(2,5-dimethoxyphenyl)ethyl]amino}pyrimidin-4-yl)phenyl]-N-[(3-bromophenyl)methyl]carboxamide] | ≤ 10 µM
9 | N#Cc1cnc(NCCNc2ccc([N+](=O)[O-])cn2)nc1-c1ccc(Cl)cc1Cl [4-(2,4-dichlorophenyl)-2-({2-[(5-nitro(2-pyridyl))amino]-ethyl}amino)pyrimidine-5-carbonitrile] | ≤ 10 µM
10 | N#CCNC(=O)c1cnc(NCCNc2ccc([N+](=O)[O-])cn2)nc1-c1ccc(C#N)cc1 [N-(cyanomethyl)[4-(4-cyanophenyl)-2-({2-[(5-nitro(2-pyridyl))amino]ethyl}amino)pyrimidin-5-yl]carboxamide] | ≤ 1 µM
11 | Cc1cn(-c2ccc(NCCNc3ccc(C#N)cn3)nc2-c2ccc(Cl)cc2Cl)cn1 [6-[(2-{[6-(2,4-dichlorophenyl)-5-(4-methylimidazolyl)-2-pyridyl]-amino}ethyl)amino]pyridine-3-carbonitrile] | ≤ 1 µM
12 | CCOC(=O)c1cnc(NCCNc2ccc([N+](=O)[O-])cn2)nc1-c1ccc2c(c1)OCO2 | ≤ 1 µM
13 | CN(C)CCc1noc(-c2cnc(NCCNc3ccc([N+](=O)[O-])cn3)nc2-c2ccc(C#N)cc2)n1 [4-[5-{3-[2-(dimethylamino)ethyl](1,2,4-oxadiazol-5-yl)}-2-({2-[(5-nitro(2-pyridyl))amino]-ethyl}amino)pyrimidin-4-yl]benzenecarbonitrile] | ≤ 1 µM
14 | CCOC(=O)c1cnc(NCCNc2ccc([N+](=O)[O-])cn2)nc1-c1ccc(OC(F)(F)F)cc1 | ≤ 1 µM
15 | O=C(NCc1cccc(I)c1)c1ccc(-c2ccnc(NCCNc3ccc([N+](=O)[O-])cn3)n2)cc1 [N-[(3-iodophenyl)methyl]{4-[2-({2-[(5-nitro(2-pyridyl))amino]ethyl}amino)pyrimidin-4-yl]phenyl}carboxamide] | ≤ 10 µM
16 | Nc1nc(NCCNc2ncc(N3C(=O)c4cccnc4C3=O)c(-c3ccc(Cl)cc3Cl)n2)ccc1[N+](=O)[O-] | ≤ 1 µM
17 | N#Cc1ccc(NCCNc2ccc(-n3ccnc3)c(-c3ccc(Cl)cc3Cl)n2)nc1 [6-[(2-{[6-(2,4-dichlorophenyl)-5-imidazolyl-2-pyridyl]amino}ethyl)amino]pyridine-3-carbonitrile] | ≤ 1 µM
18 | CCOC(=O)c1cnc(NCCNc2ccc([N+](=O)[O-])cn2)nc1-c1cnc2ccccc2c1 [ethyl 2-({2-[(5-nitro(2-pyridyl))amino]ethyl}amino)-4-(3-quinolyl)pyrimidine-5-carboxylate] | ≤ 10 µM
19 | N#Cc1cccc(-c2ccnc(NCCNc3ccc([N+](=O)[O-])cn3)n2)c1 [3-[2-({2-[(5-nitro-2-pyridyl)amino]ethyl}amino)pyrimidin-4-yl]benzenecarbonitrile] | ≤ 10 µM
20 | CCOC(=O)c1cnc(NCCNc2ccc([N+](=O)[O-])cn2)nc1-c1ccc(F)cc1 [ethyl 4-(4-fluorophenyl)-2-({2-[(5-nitro(2-pyridyl))amino]ethyl}amino)pyrimidine-5-carboxylate] | ≤ 1 µM
21 | CN1CC(=O)N(c2cnc(NCCNc3ccc([N+](=O)[O-])c(N)n3)nc2-c2ccc(Cl)cc2Cl)C(=O)C1 [1-[2-({2-[(6-amino-5-nitro(2-pyridyl))amino]ethyl}-amino)-4-(2,4-dichlorophenyl)pyrimidin-5-yl]-4-methylpiperazine-2,6-dione] | ≤ 1 µM

Row | Compound | IC50
22 | O=[N+]([O-])c1ccc(NCCNc2ncc([N+](=O)[O-])c(-c3ccccc3)n2)nc1 [{2-[(5-nitro(2-pyridyl))amino]ethyl}(5-nitro-4-phenylpyrimidin-2-yl)amine] | ≤ 1 µM
23 | CCOC(=O)c1cnc(NCCNc2ccc(C(=O)N3CCOCC3)cn2)nc1-c1ccc(C#N)cc1 [ethyl 4-(4-cyanophenyl)-2-[(2-{[5-(morpholin-4-ylcarbonyl)(2-pyridyl)]amino}ethyl)amino]pyrimidine-5-carboxylate] | ≤ 10 µM
24 | CCc1ccc(-c2nc(NCCNc3ccc(C#N)cn3)ccc2N2CCN(C)CC2=O)cc1 [6-[(2-{[6-(4-ethylphenyl)-5-(4-methyl-2-oxo-1-piperazinyl)-2-pyridinyl]amino}ethyl)amino]nicotinonitrile] | ≤ 10 µM
25 | N#Cc1cccc(-c2nc(NCCNc3ccc([N+](=O)[O-])cn3)nc(-c3ccc([N+](=O)[O-])cc3)c2C(=O)O)c1 [4-(3-cyanophenyl)-2-({2-[(5-nitro(2-pyridyl))amino]ethyl}amino)-6-(4-nitrophenyl)pyrimidine-5-carboxylic acid] | ≤ 10 µM
26 | CCCCNC(=O)c1cnc(NCCNc2ccc([N+](=O)[O-])cn2)nc1-c1ccc(C#N)cc1 [N-butyl[4-(4-cyanophenyl)-2-({2-[(5-nitro(2-pyridyl))amino]ethyl}amino)pyrimidin-5-yl]carboxamide] | ≤ 1 µM
27 | O=[N+]([O-])c1ccc(NCCNc2ncc(-c3ccc(F)cc3)cn2)nc1 [[5-(4-fluorophenyl)pyrimidin-2-yl]{2-[(5-nitro(2-pyridyl))amino]ethyl}amine] | ≤ 10 µM
28 | CCOC(=O)c1cnc(NCCNc2ccc([N+](=O)[O-])cn2)nc1-c1ccncc1 [ethyl 2-({2-[(5-nitro(2-pyridyl))amino]ethyl}amino)-4-(4-pyridyl)pyrimidine-5-carboxylate] | ≤ 1 µM
29 | COc1cccc(CCNc2nccc(-c3ccc(C(=O)NCc4cccc(Br)c4)cc3)n2)c1 [N-[(3-bromophenyl)methyl][4-(2-{[2-(3-methoxyphenyl)ethyl]amino}pyrimidin-4-yl)phenyl]carboxamide] | ≤ 10 µM
30 | O=[N+]([O-])c1ccc(NCCNc2ccc(-n3ccnc3)c(-c3ccc(Cl)cc3Cl)n2)nc1 [[6-(2,4-dichlorophenyl)-5-imidazolyl(2-pyridyl)]{2-[(5-nitro(2-pyridyl))amino]ethyl}amine] | ≤ 1 µM
31 | COc1cccc(CCNc2nccc(-c3ccc(C(N)=O)cc3)n2)c1 [4-(2-{[2-(3-methoxyphenyl)ethyl]amino}pyrimidin-4-yl)-benzamide] | ≤ 10 µM
32 | COC(=O)c1cnc(NCCNc2ccc([N+](=O)[O-])cn2)nc1-c1ccc(C#N)cc1 [methyl 4-(4-cyanophenyl)-2-({2-[(5-nitro(2-pyridyl))amino]ethyl}amino)pyrimidine-5-carboxylate] | ≤ 1 µM
33 | CCOC(=O)c1c(CC)nc(NCCNc2ccc([N+](=O)[O-])cn2)nc1-c1ccc(C#N)cc1 [ethyl 4-(4-cyano-phenyl)-6-ethyl-2-({2-[(5-nitro(2-pyridyl))amino]ethyl}amino)pyrimidine-5-carboxylate] | ≤ 1 µM
34 | Oc1ccc(-c2ccnc(NCCCc3nc(Cl)c(Cl)[nH]3)n2)cc1 [4-(2-{[3-(4,5-dichloroimidazolyl)propyl]amino}pyrimidin-4-yl)phenol] | ≤ 1 µM
35 | O=[N+]([O-])c1ccc(NCCNc2ncc(-c3ncc[nH]3)c(-c3ccc(C(F)(F)F)cc3)n2)nc1 [{5-imidazol-2-yl-4-[4-(trifluoromethyl)phenyl]pyrimidin-2-yl}{2-[(5-nitro(2-pyridyl))amino]ethyl}amine] | ≤ 1 µM
36 | O=[N+]([O-])c1ccc(NCCNc2nccc(NCc3cc(Cl)cc(Cl)c3)n2)nc1 [[(3,5-dichlorophenyl)methyl][2-({2-[(5-nitro(2-pyridyl))amino]ethyl}amino)pyrimidin-4-yl]amine] | ≤ 10 µM
37 | CCOC(=O)c1cnc(NCCNc2ccc([N+](=O)[O-])cn2)nc1-c1ccc([N+](=O)[O-])cc1 | ≤ 1 µM
38 | NC(=O)c1ccc(-c2ccnc(NCCc3ccc(F)cc3)n2)cc1 [4-(2-{[2-(4-fluorophenyl)ethyl]amino}pyrimidin-4-yl)benzamide] | ≤ 10 µM
39 | O=S(=O)(NCc1ccccc1)c1ccc(-c2ccnc(NCCNc3ccccn3)n2)cc1 [benzyl{[4-(2-{[2-(2-pyridylamino)ethyl]-amino}pyrimidin-4-yl)phenyl]sulfonyl}amine] | ≤ 10 µM
40 | Cn1ccnc1-c1cnc(NCCNc2ccc([N+](=O)[O-])cn2)nc1-c1ccc(Cl)cc1Cl [[4-(2,4-dichlorophenyl)-5-(1-methylimidazol-2-yl)pyrimidin-2-yl]{2-[(5-nitro(2-pyridyl))amino]-ethyl}amine] | ≤ 1 µM
41 | Fc1ccc(-c2ccnc(NCCNc3ccccn3)n2)cc1F [[4-(3,4-difluorophenyl)pyrimidin-2-yl][2-(2-pyridylamino)-ethyl]amine] | ≤ 10 µM
42 | NC(=O)c1ccc(-c2ccnc(NCc3ccc(-c4ccc(F)cc4)cc3)n2)cc1 [4-[2-({[4-(4-fluorophenyl)phenyl]methyl}amino)pyrimidin-4-yl]benzamide] | ≤ 10 µM
